Experimental data published in patent US20090093423A2, “NOVEL 2-SUBSTITUTED METHYL PENAM DERIVATIVES” (Orchid Chemicals and Pharmaceuticals Limited, priority 2006, published 2009).

Legend:
E. coli BAA-196 (TEM-10) = assay: MIC, Agar Dilution Method, ESBL producing ATCC isolate; assay type: cell-based; conditions: inhibitor 4 μg/mL
Procedure: (§1) The novel compounds were tested for the in vitro antibacterial activities by the Agar Dilution Method as specified in documents published by NCCLS, now CLSI, USA. (National Committee for Clinical Laboratory Standards (NCCLS). 2003. Approved standard M7-A6. NCCLS, Villanova, Pa.).
(§2) Tazo was also dissolved in same buffer to get a solution of, e.g., 1 mg/mL. Novel penam derivatives described herein were dissolved in water to get a solution of, e.g., 1 mg/mL.
(§3) The novel compounds and Tazo were also tested individually. The bacterial inoculum was prepared by picking 3 to 5 well-isolated bacterial colonies with the same morphological appearance from an 18-24 h old culture and adjusting the turbidity of the saline suspension to 0.5 McFarland Turbidity Standard equivalent to a bacterial population of 1.5×10^8 colony forming units (CFU) per mL of suspension. The suspension was diluted 1:10 in saline (i.e. 0.5 mL suspension+4.5 mL saline) to get a bacterial population of 1.5×10^7 CFU/mL as inoculum. […] The inoculated petridishes were incubated at 35° C. in an ambient atmosphere for 16-20 h.

E. coli BAA-197 (TEM-12) = assay: as above; assay type: cell-based; conditions: inhibitor 4 μg/mL
Procedure: as §1, §2, §3

E. coli BAA-200 (SHV-4) = assay: as above; assay type: cell-based; conditions: for potentiation of Piperacillin compared to Tazo: SHV-4 ESBL producing strain
Procedure: as §1, §2, §3

E. coli BAA-201 (TEM-3) = assay: as above; assay type: cell-based
Procedure: as §1, §2, §3

[1] = system: K. pneumoniae 51503 (TEM-10 & -12); assay: as above; assay type: cell-based; conditions: inhibitor 4 μg/mL
Procedure: as §1, §2, §3

E. coli BAA-198 (TEM-26) = assay: as above; assay type: cell-based
Procedure: as §1, §2, §3

E. coli BAA-199 (SHV-3) = assay: as above; assay type: cell-based
Procedure: as §1, §2, §3

E. coli BAA-202 (SHV-1) = assay: as above; assay type: cell-based
Procedure: as §1, §2, §3

[2] = system: P. mirabilis BAA-663 (TEM-89); assay: as above; assay type: cell-based
Procedure: as §1, §2, §3

[3] = Intravenous pharmacokinetics in mice; assay type: in vivo, Swiss mice
Text: Blood samples were collected at different time points. These samples were processed and analyzed by HPLC.

[4] = system: strains producing the TEM type ESBLs (TEM-10, TEM-12 and TEM-10 and -12); assay: MIC, Agar Dilution Method, TEM panel; assay type: cell-based; conditions: TEM-10, TEM-12 and TEM-10 and -12 strains; inhibitor 1 μg/mL and 2 μg/mL
Procedure: as §1, §2, §3

[5] = system: ESBL producing E. coli strains; assay: In vivo efficacy, infected mice
Procedure: (§4) The efficacy studies were performed as described earlier (Kuck et al, 1989, Antimicrob. Agents. Chemother. 33(11): 1964-1969). Briefly, Swiss albino mice, 20+2 g, from in-house breeding facility were challenged by the intraperitoneal injection of bacterial suspensions in 0.5 mL of hog gastric mucin (10 to 100 50% lethal doses). […] All the untreated control animals died within 48 h of infection. In each experiment, in-house Tazo was used as an inhibitor control in four doses. Median (50%) effective dose (ED50) were determined by applying the Reed and Muench's method of the 7-day survival ratios.

E. coli MRO 10007 = assay: In vivo efficacy, infected mice; conditions: Swiss albino mice infected with E. coli MRO 10007; Piperacillin:inhibitor 4:1; 7-day survival
Procedure: as §4

K. pneumoniae MRO 11008 [6] = assay: In vivo efficacy, infected mice
Procedure: as §4

E. coli MRO 10006 = assay: In vivo efficacy, infected mice; conditions: Swiss albino mice infected with E. coli MRO 10006; Piperacillin:inhibitor 4:1; 7-day survival
Procedure: as §4

[7] = system: K. pneumoniae ATCC 700603; assay: MIC, Agar Dilution Method; assay type: cell-based; conditions: K. pneumoniae 700603, SHV-18
Procedure: as §1, §2, §3

K. pneumoniae MRO 11008 [8] = assay: MIC, Agar Dilution Method; assay type: cell-based; conditions: ESBL producing K. pneumoniae strain; inhibitor 1 μg/mL
Procedure: as §1, §2, §3

A. baumani MRO 14514 = assay: MIC, Agar Dilution Method, resistant clinical isolate; assay type: cell-based; conditions: Pip + 4 μg/mL inhibitor
Procedure: as §1, §2, §3

A. baumani MRO 14512 = assay: as above; assay type: cell-based; conditions: Pip + 4 μg/mL inhibitor
Procedure: as §1, §2, §3

A. baumani MRO 14515 = assay: as above; assay type: cell-based; conditions: Pip + 4 μg/mL inhibitor
Procedure: as §1, §2, §3

E. coli MRO 10135 = assay: as above; assay type: cell-based; conditions: Pip + 4 μg/mL inhibitor
Procedure: as §1, §2, §3

Penicillinase enzyme = assay: β-Lactamase assay (Centa substrate); assay type: biochemical; conditions: FIG. 1
Procedure: Representative novel compounds were subjected to β-lactamase assay to determine and compare their IC50 with that of Tazo as described elsewhere (Bebrone et. al, 2001, Antimicrob. Agents. Chemother. 45(6): 1868-1871; Jamieson et. al, 2003, Antimicrob. Agents. Chemother. 47(5): 1652-1657). Briefly enzyme inhibition assays with Tazo acid as the standard inhibitor for % inhibitions & IC50 value with optimized concentrations of Penicillinase enzyme & Centa β-lactamase substrate were performed.

[9] = Minimum bactericidal studies, broth macrodilution; assay type: cell-based
Procedure: Minimum bactericidal studies were performed by broth macrodilution technique as described by NCCLS.

[10] = Possibility of conversion of Example 1 to Tazo, LC-MS/MS of plasma; assay type: in vivo; conditions: Swiss mice, 8 mg/kg along with Piperacillin (32 mg/kg)
Procedure: Blood samples were collected at different time points. These samples were processed and analyzed by LC-MS/MS, which has the capability of simultaneously detecting even the lower concentration of Tazo (20 ng/mL) and the compound obtained from Example 1 (10 ng/mL).

[11] = system: strains resistant to Ceftazidime, Ciprofloxacin, and Piperacillin/Tazo combination; assay: MIC, Agar Dilution Method, resistant panel; assay type: cell-based
Procedure: as §1, §2, §3

In the case of `C[n+]1ccn(C[C@@]2(C)[C@H](C(=O)[O-])N3C(=O)C[C@H]3S2(=O)=O)n1` [Example 1, 1-{[(2S,3S,5R)-2-Carboxy-3-methyl-4,4,7-trioxo-4-thia-1-azabicyclo[3.2.0]hept-3-yl]methyl}-3-methyl-1H-1,2,3-triazol-3-ium], the “MIC of Piperacillin with different concentrations of Tazo or compound of Example 1” value (E. coli BAA-196 (TEM-10)) is reported as 4 µg/mL, the “MIC of Piperacillin with different concentrations of Tazo or compound of Example 1” value (E. coli BAA-197 (TEM-12)) is reported as 4 µg/mL and the “MIC of Piperacillin with different concentrations of Tazo or compound of Example 1” value (E. coli BAA-200 (SHV-4); E. coli BAA-200, SHV-4, inhibitor 4 μg/mL) is reported as 2 µg/mL. For the same compound, the “potentiation of Piperacillin compared to Tazo” value (E. coli BAA-200 (SHV-4); inhibitor 1 μg/mL) was over 16 fold, the “potentiation of Piperacillin compared to Tazo” value (E. coli BAA-200 (SHV-4); inhibitor 2 μg/mL) was over 32 fold and the “MIC of Piperacillin with different concentrations of Tazo or compound of Example 1” value (E. coli BAA-201 (TEM-3); inhibitor 1 μg/mL) was 4 µg/mL. For the same compound, the “MIC of Piperacillin with different concentrations of Tazo or compound of Example 1” value (E. coli BAA-201 (TEM-3); inhibitor 2 μg/mL) was 2 µg/mL, the “MIC of Piperacillin with different concentrations of Tazo or compound of Example 1” value (E. coli BAA-201 (TEM-3); inhibitor 4 μg/mL) was 2 µg/mL and the “MIC of Piperacillin with different concentrations of Tazo or compound of Example 1” value [1] was 8 µg/mL. For the same compound, the “MIC of Piperacillin with different concentrations of Tazo or compound of Example 1” value (E. coli BAA-198 (TEM-26); inhibitor 1 μg/mL) was 4 µg/mL, the “MIC of Piperacillin with different concentrations of Tazo or compound of Example 1” value (E. coli BAA-198 (TEM-26); inhibitor 2 μg/mL) was 4 µg/mL and the “MIC of Piperacillin with different concentrations of Tazo or compound of Example 1” value (E. coli BAA-198 (TEM-26); inhibitor 4 μg/mL) was 2 µg/mL. For the same compound, the “potentiation of Piperacillin compared to Tazo” value (E. coli BAA-199 (SHV-3); SHV-3 ESBL producing strain, inhibitor 1 μg/mL) was over 16 fold, the “potentiation of Piperacillin compared to Tazo” value (E. coli BAA-199 (SHV-3); SHV-3 ESBL producing strain, inhibitor 2 μg/mL) was over 32 fold and the “potentiation of Piperacillin compared to Tazo (in words)” value (E. coli BAA-199 (SHV-3); SHV-3 producing strain as printed (second mention), inhibitor 4 μg/mL) was “comparable with Tazo”. The “potentiation of Piperacillin compared to Tazo” value (E. coli BAA-199 (SHV-3); SHV-3 producing strain, inhibitor 4 μg/mL) was over 64 fold, the “MIC of Piperacillin with different concentrations of Tazo or compound of Example 1” value (E. coli BAA-202 (SHV-1); inhibitor 1 μg/mL) was over 128 µg/mL and the “MIC of Piperacillin with different concentrations of Tazo or compound of Example 1” value (E. coli BAA-202 (SHV-1); inhibitor 2 μg/mL) was over 128 µg/mL. For the same compound, the “MIC of Piperacillin with different concentrations of Tazo or compound of Example 1” value (E. coli BAA-202 (SHV-1); inhibitor 4 μg/mL) was over 128 µg/mL, the “MIC of Piperacillin with different concentrations of Tazo or compound of Example 1” value ([2]; inhibitor 1 μg/mL) was 16 µg/mL and the “MIC of Piperacillin with different concentrations of Tazo or compound of Example 1” value ([2]; inhibitor 2 μg/mL) was 8 µg/mL. The “MIC of Piperacillin with different concentrations of Tazo or compound of Example 1” value ([2]; inhibitor 4 μg/mL) was 8 µg/mL, the C0 ([3]; Swiss, mouse, in vivo, iv, 8 mg/kg) was 15200 ng/mL and the AUC(0-t) ([3]; Swiss, mouse, in vivo, iv, 8 mg/kg, read-out: AUC0-4 h) was 5370 ng·h/mL. The AUC ([3]; Swiss, mouse, in vivo, iv, 8 mg/kg, read-out: AUC0-∝) was 5830 ng·h/mL, the half-life ([3]; Swiss, mouse, in vivo, iv, 8 mg/kg, read-out: Elimination half-life (converted)) was 16.3 min and the systemic exposure ([3]; mice, intravenous, compared with Tazo) was “higher than that of Tazo”. The “potentiation of Piperacillin compared to Tazo” value [4] was 2-16 fold, the “ED50 of Piperacillin in combination, compared to that in combination with Tazo” value [5] was “two-fold lower” and the “ED50 of Piperacillin in combination with inhibitor” value (“ED50 … with inhibitor” for short) (E. coli MRO 10007) was 24.88 mg/kg b.w. The “ED50 … with inhibitor” value (K. pneumoniae MRO 11008 [6]; Swiss albino mice infected with K. pneumoniae MRO 11008, Piperacillin:inhibitor 4:1, 7-day survival) was 34.89 mg/kg b.w, the “increase of efficacy of Piperacillin” value (K. pneumoniae MRO 11008 [6]; mice, ESBL producing K. pneumoniae strain resistant in vitro to Piperacillin with 1 μg/mL Tazo) was “three-fold” and the “ED50 … with inhibitor” value (E. coli MRO 10006) was 22.62 mg/kg b.w. For the same compound, the “MIC of Piperacillin with different concentrations of Tazo or compound of Example 1” value ([7]; inhibitor 2 μg/mL) was 16 µg/mL, the “MIC of Piperacillin with different concentrations of Tazo or compound of Example 1” value ([7]; inhibitor 4 μg/mL) was 16 µg/mL and the “in vitro potentiation of Piperacillin” value (K. pneumoniae MRO 11008 [8]) was 16 fold. For the same compound, the “MIC of Piperacillin in combination with 4 μg/mL inhibitor” value (“MIC … with 4 μg/mL inhibitor” below) (A. baumani MRO 14514) was 32 µg/mL, the “MIC … with 4 μg/mL inhibitor” value (A. baumani MRO 14512) was 4 µg/mL and the “MIC … with 4 μg/mL inhibitor” value (A. baumani MRO 14515) was 32 µg/mL. The “MIC … with 4 μg/mL inhibitor” value (E. coli MRO 10135) was 16 µg/mL, the “IC50 compared with Tazo” value (Penicillinase enzyme) was “three-fold lower” and the “Minimum bactericidal concentration study, Piperacillin in combination with inhibitor” value [9] was “bacteriostatic”. The “conversion to Tazo after intravenous administration (LC-MS/MS of plasma)” value [10] was “did not get converted to Tazo”, the “potentiated the antibacterial activity of Piperacillin compared to that of Tazo” value ([11]; inhibitor 4 μg/mL, strains resistant to Ceftazidime and Ciprofloxacin) was 2-16 fold and the “susceptibility of resistant strains to Piperacillin in combination” value ([11]; strains resistant to Ceftazidime, Ciprofloxacin, and Piperacillin/Tazo combination) was “susceptible”.
